Results: ChEMBL document CHEMBL1201862, “PubChem BioAssay data set” (2004)
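Cultured in 96-well plates, cells were exposed to test compound for 48 hours across five concentrations. GI50 is the concentration that inhibits growth by half.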 Calls of active or inactive are those of the source. Cut-off read from the data, not from the text of the source: active = GI50 up to about 1.1 µM and inactive = higher.

Assays:
Assay in all cases: NCI-60 cell line screen, 48 h
HOP-62 = system: HOP-62
U-251 = system: U-251
MCF7 = system: MCF7
SK-MEL-5 = system: SK-MEL-5
SR = system: SR
A498 = system: A498
HCT-116 = system: HCT-116
HL-60 = system: HL-60
UACC-257 = system: UACC-257
BT-549 = system: BT-549
MDA-MB-231 = system: MDA-MB-231
COLO 205 = system: COLO 205
SN12C = system: SN12C
SK-OV-3 = system: SK-OV-3
K562 = system: K562
SK-MEL-2 = system: SK-MEL-2
SF-539 = system: SF-539
SF-268 = system: SF-268
NCI-H23 = system: NCI-H23
OVCAR-3 = system: OVCAR-3
Hs-578T = system: Hs-578T
NCI-H522 = system: NCI-H522
786-0 = system: 786-0
OVCAR-8 = system: OVCAR-8
OVCAR-4 = system: OVCAR-4
DU-145 = system: DU-145
NCI/ADR-RES = system: NCI/ADR-RES
OVCAR-5 = system: OVCAR-5
T47D = system: T47D
RXF 393 = system: RXF 393
MDA-MB-435 = system: MDA-MB-435
PC-3 = system: PC-3
CCRF-CEM = system: CCRF-CEM
UO-31 = system: UO-31
CAKI-1 = system: CAKI-1
HOP-92 = system: HOP-92
TK-10 = system: TK-10
NCI-H460 = system: NCI-H460
ACHN = system: ACHN
SW-620 = system: SW-620
LOX IMVI = system: LOX IMVI
SNB-75 = system: SNB-75
SNB-19 = system: SNB-19
HCT-15 = system: HCT-15
MDA-N = system: MDA-N
MOLT-4 = system: MOLT-4
SF-295 = system: SF-295
HCC 2998 = system: HCC 2998
KM12 = system: KM12
M14 = system: M14
UACC-62 = system: UACC-62
HT-29 = system: HT-29
IGROV-1 = system: IGROV-1
SK-MEL-28 = system: SK-MEL-28
NCI-H226 = system: NCI-H226
EKVX = system: EKVX
A549 = system: A549
Malme-3M = system: Malme-3M

Structure (SMILES): CC1OC(O[C@H]2CC[C@]3(C)[C@H]4CC=C5[C@@H]6[C@@H](C)[C@H](C)CC[C@]6(C(=O)OC6OC(CO)C(O)C(O)C6O)CC[C@@]5(C(=O)O)[C@]4(C)CC[C@H]3C2(C)C)C(O)C(O)C1O (some centres not stated)
- GI50 (HOP-62): > 100 µM (inactive)
- GI50 (U-251): > 100 µM (inactive)
- GI50 (MCF7): > 100 µM (inactive)
- GI50 (SK-MEL-5): > 100 µM (inactive)
- GI50 (SR): > 100 µM (inactive)
- GI50 (A498): > 100 µM (inactive)
- GI50 (HCT-116): > 100 µM (inactive)
- GI50 (HL-60): > 100 µM (inactive)
- GI50 (UACC-257): > 100 µM (inactive)
- GI50 (BT-549): > 100 µM (inactive)
- GI50 (MDA-MB-231): > 100 µM (inactive)
- GI50 (COLO 205): > 100 µM (inactive)
- GI50 (SN12C): > 100 µM (inactive)
- GI50 (SK-OV-3): > 100 µM (inactive)
- GI50 (K562): > 100 µM (inactive)
- GI50 (SK-MEL-2): > 100 µM (inactive)
- GI50 (SF-539): > 100 µM (inactive)
- GI50 (SF-268): > 100 µM (inactive)
- GI50 (NCI-H23): > 100 µM (inactive)
- GI50 (OVCAR-3): > 100 µM (inactive)
- GI50 (Hs-578T): > 100 µM (inactive)
- GI50 (NCI-H522): > 100 µM (inactive)
- GI50 (786-0): > 100 µM (inactive)
- GI50 (OVCAR-8): > 100 µM (inactive)
- GI50 (OVCAR-4): > 100 µM (inactive)
- GI50 (DU-145): > 100 µM (inactive)
- GI50 (NCI/ADR-RES): > 100 µM (inactive)
- GI50 (OVCAR-5): > 100 µM (inactive)
- GI50 (T47D): > 100 µM (inactive)
- GI50 (RXF 393): > 100 µM (inactive)
- GI50 (MDA-MB-435): > 100 µM (inactive)
- GI50 (PC-3): > 100 µM (inactive)
- GI50 (CCRF-CEM): > 100 µM (inactive)
- GI50 (UO-31): > 100 µM (inactive)
- GI50 (CAKI-1): > 100 µM (inactive)
- GI50 (HOP-92): > 100 µM (inactive)
- GI50 (TK-10): > 100 µM (inactive)
- GI50 (NCI-H460): > 100 µM (inactive)
- GI50 (ACHN): > 100 µM (inactive)
- GI50 (SW-620): > 100 µM (inactive)
- GI50 (LOX IMVI): > 100 µM (inactive)
- GI50 (SNB-75): > 100 µM (inactive)
- GI50 (SNB-19): > 100 µM (inactive)
- GI50 (HCT-15): > 100 µM
- GI50 (MDA-N): > 100 µM (inactive)
- GI50 (MOLT-4): > 100 µM (inactive)
- GI50 (SF-295): > 100 µM (inactive)
- GI50 (HCC 2998): > 100 µM (inactive)
- GI50 (KM12): > 100 µM (inactive)
- GI50 (M14): > 100 µM (inactive)
- GI50 (UACC-62): > 100 µM (inactive)

Structure (SMILES): Oc1ccccc1/C=N/Nc1nc(N/N=C/c2ccccc2O)nc(N/N=C/c2ccccc2O)n1
- GI50 (HT-29): 69.7 µM (inactive)
- GI50 (IGROV-1): 45.4 µM (inactive)
- GI50 (SK-MEL-28): > 100 µM (inactive)
- GI50 (HOP-62): 44.6 µM (inactive)
- GI50 (U-251): 47.1 µM (inactive)
- GI50 (MCF7): 8.63 µM (inactive)
- GI50 (SK-MEL-5): > 100 µM (inactive)
- GI50 (SR): > 100 µM (inactive)
- GI50 (A498): > 100 µM (inactive)
- GI50 (NCI-H226): 58.7 µM (inactive)
- GI50 (HCT-116): 42.2 µM (inactive)
- GI50 (HL-60): > 100 µM (inactive)
- GI50 (UACC-257): > 100 µM (inactive)
- GI50 (BT-549): 85.3 µM (inactive)
- GI50 (EKVX): > 100 µM (inactive)
- GI50 (MDA-MB-231): > 100 µM (inactive)
- GI50 (COLO 205): > 100 µM (inactive)
- GI50 (SN12C): > 100 µM (inactive)
- GI50 (SK-OV-3): 71.9 µM (inactive)
- GI50 (K562): > 100 µM (inactive)
- GI50 (SK-MEL-2): 43.6 µM (inactive)
- GI50 (SF-539): > 100 µM (inactive)
- GI50 (SF-268): > 100 µM (inactive)
- GI50 (NCI-H23): > 100 µM (inactive)
- GI50 (OVCAR-3): 29.2 µM (inactive)
- GI50 (Hs-578T): 46.5 µM (inactive)
- GI50 (NCI-H522): 31.6 µM (inactive)
- GI50 (786-0): 40.2 µM (inactive)
- GI50 (OVCAR-8): > 100 µM (inactive)
- GI50 (OVCAR-4): > 100 µM (inactive)
- GI50 (DU-145): > 100 µM (inactive)
- GI50 (NCI/ADR-RES): 24.5 µM (inactive)
- GI50 (OVCAR-5): > 100 µM (inactive)
- GI50 (T47D): 47.9 µM (inactive)
- GI50 (A549): > 100 µM (inactive)
- GI50 (RXF 393): 87.1 µM (inactive)
- GI50 (MDA-MB-435): > 100 µM (inactive)
- GI50 (PC-3): 78.2 µM (inactive)
- GI50 (UO-31): > 100 µM (inactive)
- GI50 (CAKI-1): > 100 µM (inactive)
- GI50 (HOP-92): 21.1 µM (inactive)
- GI50 (TK-10): > 100 µM (inactive)
- GI50 (NCI-H460): 44.8 µM (inactive)
- GI50 (ACHN): 69.7 µM (inactive)
- GI50 (SW-620): > 100 µM (inactive)
- GI50 (LOX IMVI): > 100 µM (inactive)
- GI50 (SNB-19): > 100 µM (inactive)
- GI50 (HCT-15): 13.3 µM
- GI50 (MDA-N): > 100 µM (inactive)
- GI50 (Malme-3M): > 100 µM (inactive)
- GI50 (MOLT-4): 10.5 µM (inactive)
- GI50 (SF-295): 86.1 µM (inactive)
- GI50 (HCC 2998): > 100 µM (inactive)
- GI50 (KM12): > 100 µM (inactive)
- GI50 (M14): > 100 µM (inactive)
- GI50 (UACC-62): 51.1 µM (inactive)
